# Results taken from article PMC11336141.
# “Also recorded” adds a separate entry of the source. Bridge positions count the residues as written; N and C are the ends. Square brackets hold non-standard residues; d marks the D form. Peptide text beside a SMILES is read from it.
# Legend:
# Dr-sstr2a = assay: PRESTO-Tango β-arrestin recruitment assay, Dr-sstr2a; type: cell-based, zebrafish (Danio rerio); conditions: HTLA cells, listed as Consomatin pG1
# Description: (§1) 3xHA-tagged human SSTR2 construct was obtained from cDNA.org (cDNA resource center, Bloomsburg PA, US). […] Kirill Martemyanov (University of Florida, US). Tango constructs for human SSTR1-5 were kind gifts from Prof. Bryan Roth (University of North Carolina, Chapel Hill, US) (Addgene kit # 1000000068). Tango constructs for fish Dr-sstr2a (sequence accession number: XP_005170178.1) and Dr-sstr2b (sequence accession number: XP_017210358.1) were custom-synthesized by Twist Biosciences using the Tango construct template as described in Kroeze et al., 2015[28]. 3xHA-tagged Dr-sstr2a and 3xHA tagged Dr-sstr2b constructs were inserted into pcDNA3.1 backbone. All DNA constructs were sequenced and confirmed prior to use.
# (§2) The assay was done as described in ref. [12].
# Dr-sstr2b = assay: PRESTO-Tango β-arrestin recruitment assay, Dr-sstr2b; type: cell-based, zebrafish (Danio rerio); conditions: for pEC50: Dr-sstr2b, Fig. S15D
# Description: as §1, §2
# human SSTR2 (Gi1) = biological target: T1, human SSTR2 (Gi1) (Homo sapiens, UniProt P30874); assay: G protein activation (BRET dissociation) assay, Gi1 at hSSTR2; type: cell-based;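 as to Emax ± S.E.M.: percent of the maximal response to the reference somatostatin agonist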
# T1 construct: host or cells: HEK293T cells
# Method: (§4) HEK293T cells were seeded onto 6-well plates at a density of 750,000 cells/well. […] 16 to 24 hours post-transfection, HEK293T cells were seeded onto white 96 well plate (PerkinElmer) coated with poly-L-lysine (PLL) at a density of 40,000 cells/well and were allowed to grow overnight. On the day of assay, cells were washed once with phosphate-based saline (PBS) and 80 µL of assay buffer which composed of PBS with 0.5 mM MgCl2 and 0.1% glucose, pH 7.4, were added onto each well. 10 µL of Nluc luciferase substrate furimazine (Promega) were added onto each well and incubated for 3 minutes.
# (§5) The net BRET ratio was determined by subtracting the BRET ratio of drugs with the BRET ratio of vehicle control. Net BRET ratio over time was then plotted using GraphPad Prism (v.9.4.1), and the area-under-curve of net BRET ratio over time course for each ligand concentration tested were then determined and plotted against log(concentration) of drugs tested. […] Concentration response curves were fitted with a 4-parameter logistic Eq. (1) using GraphPad Prism (v.9.4.1):1 Y=Emin+(Emax−Emin)/1+10^logEC50−X×Hillslope
# human SSTR2 (Gi2) = biological target: T2, human SSTR2 (Gi2) (Homo sapiens, UniProt P30874); assay: G protein activation (BRET dissociation) assay, Gi2 at hSSTR2; type: cell-based;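 as to Emax ± S.E.M.: percent of the maximal response to the reference somatostatin agonist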
# T2 construct: host or cells: HEK293T cells
# Method: as §4, §5
# human SSTR2 (Gi3) = biological target: T3, human SSTR2 (Gi3) (Homo sapiens, UniProt P30874); assay: G protein activation (BRET dissociation) assay, Gi3 at hSSTR2; type: cell-based;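 as to Emax ± S.E.M.: percent of the maximal response to the reference somatostatin agonist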
# T3 construct: host or cells: HEK293T cells
# Method: as §4, §5
# Dr-sstr2a (GoA) = assay: G protein dissociation assay, GoA at Dr-sstr2a; type: cell-based, zebrafish (Danio rerio); conditions: HEK293T cells
# Description: as §1
# (§3) Error bars represent means ± S.E.M. of n = 3 in technical duplicates.
# Dr-sstr2b (GoA) = assay: G protein dissociation assay, GoA at Dr-sstr2b; type: cell-based, zebrafish (Danio rerio)
# Description: as §1, §3
# perfused rat pancreas [1] = assay: Rat pancreas perfusion, insulin output; parameters: species or system rat (Wistar); conditions: for effect on insulin secretion: 0.1 nM, 1 nM and 10 nM, […] glucose, n = 5 rats; for Insulin output: Mean
# Method: Non-fasted rats were anesthetized by a subcutaneous injection of a balanced mix of hypnorm and midazolam (0.3 mL/100 g body weight). Rats were placed on a heated operating table (37 °C) and the abdomen were opened. Blood vessels were tied off before removing the large and small intestines, the stomach, and the spleen. Then, the kidneys were ligated. […] The perfusion buffer was a modified Krebs-Ringer bicarbonate buffer with 5% (w/v) dextran T-70 (Pharmacosmos, Holbaek, Denmark), 0.1% (w/v) BSA (fraction V), 3.5 mM glucose and 3 mM vamin (Fresenius Kabi, Copenhagen, Denmark), pH adjusted to 7.4. […] Once perfusion of the pancreas was established, a catheter was inserted in the vena portae to collect the venous effluent and the rat was sacrificed by perforation of the diaphragm. After a 30-minute equilibration period, samples were collected every minute for the duration of the protocol. […] 10 mM L-Arginine was used as a positive control. Collected samples were immediately transferred on ice and stored at −20 °C until hormone analysis. Glucagon, insulin, and somatostatin concentrations in venous effluents were quantified by use of validated in-house radioimmunoassays (RIA) as previously described[36] (see below). Statistical analysis were performed where appropriate using one-way analysis of variance (ANOVA) with Dunnett’s post-test. Statistical significance was taken as p < 0.05.
# Glucagon concentration in perfusion samples were measured by a validated in-house RIAs using the 4305 antibody, which reacts with the C-terminal epitope of glucagon[36] and no other cleavage products of pro-glucagon. Insulin concentrations were measured with the 2006 antibody, which measures all isoforms of rat insulin. […] Assay sensitivity was <1 pmol/L ( < 5 pmol/L for insulin detection), allowing reliable measurements of increments of at least 25 fmol/min.
# Data analysis were performed in GraphPad Prism (v.9.4.1). Statistical analysis were performed using two-way repeated measure analysis of variance (ANOVA) with Šidák test for isolated islets glucagon secretion and one-way repeated measure ANOVA with Dunnett's test for rat pancreas perfusion experiments. Statistical significance was taken as p < 0.05.
# perfused rat pancreas [2] = assay: Rat pancreas perfusion, somatostatin output; parameters: species or system rat (Wistar); conditions: 0.1 nM, 1 nM and 10 nM, […] glucose, n = 10 rats
# Method: Non-fasted rats were anesthetized by a subcutaneous injection of a balanced mix of hypnorm and midazolam (0.3 mL/100 g body weight). Rats were placed on a heated operating table (37 °C) and the abdomen were opened. Blood vessels were tied off before removing the large and small intestines, the stomach, and the spleen. Then, the kidneys were ligated. […] The perfusion buffer was a modified Krebs-Ringer bicarbonate buffer with 5% (w/v) dextran T-70 (Pharmacosmos, Holbaek, Denmark), 0.1% (w/v) BSA (fraction V), 3.5 mM glucose and 3 mM vamin (Fresenius Kabi, Copenhagen, Denmark), pH adjusted to 7.4. […] Once perfusion of the pancreas was established, a catheter was inserted in the vena portae to collect the venous effluent and the rat was sacrificed by perforation of the diaphragm. After a 30-minute equilibration period, samples were collected every minute for the duration of the protocol. […] Glucagon, insulin, and somatostatin concentrations in venous effluents were quantified by use of validated in-house radioimmunoassays (RIA) as previously described[36] […]
# Glucagon concentration in perfusion samples were measured by a validated in-house RIAs using the 4305 antibody, which reacts with the C-terminal epitope of glucagon[36] and no other cleavage products of pro-glucagon. Insulin concentrations were measured with the 2006 antibody, which measures all isoforms of rat insulin. […]
# [3] = system: Dr-sstr2a with the ECL2 region of the hSSTR2; assay: Activation of hybrid receptor (ECL2 of hSSTR2 inserted into Dr-sstr2a); type: cell-based; conditions: preliminary results, peer review file
# Description: To further address this, we have begun to perform mutagenesis studies on the Dr-sstr2a.
# [4] = system: human SSTR2 (Gi1-3, GoA, GoB); assay: G protein activation (BRET dissociation) assay, panel of Gi/o proteins at hSSTR2; type: cell-based; conditions: hSSTR2, HEK293T cells
# Method: as §4, §5
# human SSTR2 = human SSTR2 (Homo sapiens, UniProt P30874); assay: PRESTO-Tango β-arrestin recruitment assay, hSSTR2
# Method: HTLA cells were given by Prof. Bryan Roth (University of North Carolina, Chapel Hill, US) and were maintained in Dulbecco’s modified Eagle’s medium (DMEM) supplemented with 10% Fetal Bovine Serum (FBS) (Biowest) and 100 U/mL penicillin and 100 µg/mL streptomycin at 37 °C in a humidified incubator supplemented with 5% CO2. Constant selective pressure for tTA-dependent luciferase reporter and a β-arrestin 2 tobacco etch virus protease fusion gene were maintained with the addition of 100 µg/mL hygromycin B and 2 µg/ml puromycin (Tango growth medium).
# Briefly, HTLA cells (1 million cells/well) were seeded in 6-well plates in Tango growth medium, and incubated overnight. On day 2, medium was changed to Tango growth medium without hygromycin B and puromycin. Cells were then transfected using Polyfect (Qiagen) according to manufacturer’s protocol. On day 3, 15,000 cells in 40 µL DMEM supplemented with 1% dialyzed FBS (Tango assay medium) per well were seeded in poly-D-lysine-coated white clear-bottom 384 well plates (Corning) and incubated overnight. On day 4, the Tango assay medium was changed and 10 µL of each of the peptide was added at 5x final concentration. The peptides were resuspended in HBSS with 20 mM HEPES, 1 mM of CaCl2, 1 mM of MgCl2, pH adjusted to 7.4 with 1 M NaOH (Tango assay buffer), which was supplemented with 0.1% BSA (Tango ligand buffer). After overnight incubation, on day 5, the medium and the compounds were removed from the cells and 20 µL of 1:20 dilution of BrightGlo (Promega) in Tango assay buffer supplemented with 0.01% pluronic F68 was added to the cells. Plates were incubated for 20 minutes in the dark at room temperature. Luminescence was measured on a Molecular Devices SpectraMax iD5 (Molecular Devices) with each well integrated for 1 second.
# human SSTR2 (GoA) = human SSTR2 (GoA) (Homo sapiens, UniProt P30874); assay: G protein activation (BRET dissociation) assay, GoA at hSSTR2;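 as to Emax: percent of the maximal response to the reference somatostatin agonist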
# Sequence of human SSTR2 (GoA) (P30874 whole entry): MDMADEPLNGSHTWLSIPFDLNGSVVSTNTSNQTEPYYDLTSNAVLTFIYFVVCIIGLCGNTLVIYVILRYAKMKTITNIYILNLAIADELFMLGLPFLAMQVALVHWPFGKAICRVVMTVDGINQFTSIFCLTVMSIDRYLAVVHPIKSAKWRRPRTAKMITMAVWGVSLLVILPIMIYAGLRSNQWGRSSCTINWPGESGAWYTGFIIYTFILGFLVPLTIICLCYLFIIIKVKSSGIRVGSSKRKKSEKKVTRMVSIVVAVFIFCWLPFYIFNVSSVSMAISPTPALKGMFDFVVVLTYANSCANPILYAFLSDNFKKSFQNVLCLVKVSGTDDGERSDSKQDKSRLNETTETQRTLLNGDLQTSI
# Method: as §4, §5
# Sequence of human SSTR2 (P30874 whole entry): as above
# T3 sequence (P30874 whole entry): as above
# T1 sequence (P30874 whole entry): as above
# T2 sequence (P30874 whole entry): as above
structure (smiles),measurement,setting,value
CC(C)C[C@H](N)C(=O)N[C@@H](Cc1ccccc1)C(=O)N[C@H]1CSSC[C@@H](C(=O)N[C@@H](Cc2c[nH]c3ccccc23)C(=O)O)NC(=O)[C@H](CO)NC(=O)[C@H](CCCCN)NC(=O)[C@@H](Cc2c[nH]c3ccccc23)NC(=O)[C@H](Cc2ccccc2)NC1=O [pG1] (H-LFCF[dW]KSCW-OH; disulfide 3-8),activation of Dr-sstr2a in words,Dr-sstr2a,very low potency; also recorded: activates the zebrafish Dr-sstr2b (n = 3) but not Dr-sstr2a
same,pEC50,Dr-sstr2b; replicate 1,7.529
same,pEC50,Dr-sstr2b; replicate 2,7.491
same,pEC50,Dr-sstr2b; replicate 3,7.611
same,pEC50,Dr-sstr2b; replicate 4,7.82
same,activation of Dr-sstr2b in words,"Dr-sstr2b; PRESTO-Tango, HTLA cells",activates the zebrafish Dr-sstr2b (n = 3) but not Dr-sstr2a
same,Hill Slope,Dr-sstr2b; Table S4,0.90 ± 0.13
same,Span ± S.E.M.,Dr-sstr2b; Table S4,82.46 ± 4.04
same,EC50,"Dr-sstr2b; Table S4, HTLA cells",25.3 nM
same,Emax ± S.E.M.,"Dr-sstr2b; Table S4, relative to SS-14",83.12 ± 3.13
same,Emax,human SSTR2 (Gi1),95.6 ± 8.52%
same,Hill Slope,"human SSTR2 (Gi1); Table S2, Gαi1",0.81 ± 0.28
same,Span ± S.E.M.,"human SSTR2 (Gi1); Table S2, Gαi1",87.89 ± 11.1
same,EC50,"human SSTR2 (Gi1); Table S2, Gαi1, HEK293T, means ± S.E.M.",6.46 nM
same,Emax,human SSTR2 (Gi2),91 ± 4.6%
same,Hill Slope,"human SSTR2 (Gi2); Table S2, Gαi2",1.11 ± 0.22
same,Span ± S.E.M.,"human SSTR2 (Gi2); Table S2, Gαi2",83.42 ± 5.67
same,EC50,"human SSTR2 (Gi2); Table S2, Gαi2, HEK293T, means ± S.E.M.",1.35 nM
same,Emax,human SSTR2 (Gi3),75.2 ± 7.38%
same,Hill Slope,"human SSTR2 (Gi3); Table S2, Gαi3",0.70 ± 0.18
same,Span ± S.E.M.,"human SSTR2 (Gi3); Table S2, Gαi3",75.57 ± 8.97
same,GoA dissociation at Dr-sstr2a in words,Dr-sstr2a (GoA),only induced GoA dissociation at the Dr-sstr2b but not the Dr-sstr2a
same,GoA dissociation at Dr-sstr2b in words,Dr-sstr2b (GoA); HEK293T cells,only induced GoA dissociation at the Dr-sstr2b but not the Dr-sstr2a
same,Hill Slope,"Dr-sstr2b (GoA); Table S5, GoA",0.48 ± 0.10
same,Span ± S.E.M.,"Dr-sstr2b (GoA); Table S5, GoA",100.43 ± 11.98
same,Emax ± S.E.M.,"Dr-sstr2b (GoA); Table S5, GoA, % of maximal response relative to SS-14",105.52 ± 10.37%
same,pEC50 ± S.E.M.,"Dr-sstr2b (GoA); Table S5, GoA, HEK293T",7.95 ± 0.19
same,effect on insulin secretion,perfused rat pancreas [1],did not affect insulin and somatostatin output at low glucose (3.5 mM)
same,effect on insulin secretion,perfused rat pancreas [1]; listed as Consomatin pG1,no effect on somatostatin or insulin secretion in 3.5 mM glucose
same,Insulin output,"perfused rat pancreas [1]; 0.1nM, replicate 1",35.5
same,Insulin output,"perfused rat pancreas [1]; 0.1nM, replicate 2",10
same,Insulin output,"perfused rat pancreas [1]; 0.1nM, replicate 3",25.5
same,Insulin output,"perfused rat pancreas [1]; 0.1nM, replicate 4",51
same,Insulin output,"perfused rat pancreas [1]; 0.1nM, replicate 5",14
same,Insulin output,"perfused rat pancreas [1]; 1nM, replicate 1",15.5556
same,Insulin output,"perfused rat pancreas [1]; 1nM, replicate 2",29
same,Insulin output,"perfused rat pancreas [1]; 1nM, replicate 3",40
same,Insulin output,"perfused rat pancreas [1]; 1nM, replicate 4",74.5
same,Insulin output,"perfused rat pancreas [1]; 1nM, replicate 5",0
same,Insulin output,"perfused rat pancreas [1]; 10nM, replicate 1",25
same,Insulin output,"perfused rat pancreas [1]; 10nM, replicate 2",0
same,Insulin output,"perfused rat pancreas [1]; 10nM, replicate 3",15
same,Insulin output,"perfused rat pancreas [1]; 10nM, replicate 4",35
same,Insulin output,"perfused rat pancreas [1]; 10nM, replicate 5",11.5
same,effect on somatostatin secretion,perfused rat pancreas [2],did not affect insulin and somatostatin output at low glucose (3.5 mM)
same,effect on somatostatin secretion,perfused rat pancreas [2]; listed as Consomatin pG1,no effect on somatostatin or insulin secretion in 3.5 mM glucose
same,activation of hybrid receptor in words,[3],activation of this hybrid receptor
same,Gi/o protein dissociation in words,[4],weaker potencies at dissociating all Gi/o proteins compared to SS-14
same,Gi/o protein dissociation in words,[4]; listed as Consomatin pG1,weaker potencies in dissociating different Gαi/o protein compared to SS-14 and octreotide
same,EC50,human SSTR2,3.55 nM
same,activation of hSSTR2 in words,"human SSTR2; PRESTO-Tango, HTLA cells",potent and selective SSTR2 full agonist
same,Hill Slope,human SSTR2; Table S1,0.50 ± 0.06
same,Span ± S.E.M.,human SSTR2; Table S1,106.03 ± 6.98
same,Emax,"human SSTR2; read-out: Emax ± S.E.M., Table S1, % of maximal response relative to SS-14",105 ± 3.01%
same,EC50,human SSTR2 (GoA),5.13 nM
same,Hill Slope,"human SSTR2 (GoA); Table S2, GαoA",1.04 ± 0.25
same,Span ± S.E.M.,"human SSTR2 (GoA); Table S2, GαoA",97.45 ± 6.80
same,GoA activation/dissociation in words,"human SSTR2 (GoA); hSSTR2, HEK293T cells",most potent at dissociating GoA protein among all Gi/o proteins tested
same,Emax,human SSTR2 (GoA); read-out: Emax ± S.E.M.,97.9 ± 4.11%
